Assay results from patent US7692030B2, “Conjugates of artemisinin-related endoperoxides and hydrazone derivatives for the treatment of cancer” (University of Washington, priority 2006, dated 2010).

How the values were obtained:
[1] = system: HCC-2998; experiment: NCI DTP human tumor cell line screen (SRB); type: cell-based; conditions: Colon Cancer, 10 μM, 48 h
Method in brief: (§1)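 Cells plated and preincubated 24 h at 37 °C, 5% CO2, then exposed to compound at 10 μM final for 48 h. Adherent cells fixed with cold TCA, stained with SRB, absorbance read at 515 nm. Percent growth derived from time-zero (Tz), control (C) and treated (Ti) readings.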

[2] = system: HCT-116; experiment: NCI DTP human tumor cell line screen (SRB); type: cell-based; conditions: Colon Cancer, 10 μM, 48 h
Method in brief: as §1

[3] = system: HOP-92; experiment: NCI DTP human tumor cell line screen (SRB); type: cell-based; conditions: Non-Small Cell Lung Cancer, 10 μM, 48 h
Method in brief: as §1

[4] = system: HT29; experiment: NCI DTP human tumor cell line screen (SRB); type: cell-based; conditions: Colon Cancer, 10 μM, 48 h
Method in brief: as §1

[5] = system: K-562; experiment: NCI DTP human tumor cell line screen (SRB); type: cell-based; conditions: Leukemia, 10 μM, 48 h
Method in brief: as §1

[6] = system: KM12; experiment: NCI DTP human tumor cell line screen (SRB); type: cell-based; conditions: Colon Cancer, 10 μM, 48 h
Method in brief: as §1

[7] = system: LOX IMVI; experiment: NCI DTP human tumor cell line screen (SRB); type: cell-based; conditions: Melanoma, 10 μM, 48 h
Method in brief: as §1

[8] = system: M14; experiment: NCI DTP human tumor cell line screen (SRB); type: cell-based; conditions: Melanoma, 10 μM, 48 h
Method in brief: as §1

[9] = system: MALME-3M; experiment: NCI DTP human tumor cell line screen (SRB); type: cell-based; conditions: Melanoma, 10 μM, 48 h
Method in brief: as §1

[10] = system: MDA-MB-231/ATCC; experiment: NCI DTP human tumor cell line screen (SRB); type: cell-based; conditions: Breast Cancer, 10 μM, 48 h
Method in brief: as §1

[11] = system: NCI-H322M; experiment: NCI DTP human tumor cell line screen (SRB); type: cell-based; conditions: Non-Small Cell Lung Cancer, 10 μM, 48 h
Method in brief: as §1

[12] = system: NCI-H522; experiment: NCI DTP human tumor cell line screen (SRB); type: cell-based; conditions: Non-Small Cell Lung Cancer, 10 μM, 48 h
Method in brief: as §1

[13] = system: OVCAR-3; experiment: NCI DTP human tumor cell line screen (SRB); type: cell-based; conditions: Ovarian Cancer, 10 μM, 48 h
Method in brief: as §1

[14] = system: OVCAR-4; experiment: NCI DTP human tumor cell line screen (SRB); type: cell-based; conditions: Ovarian Cancer, 10 μM, 48 h
Method in brief: as §1

[15] = system: OVCAR-8; experiment: NCI DTP human tumor cell line screen (SRB); type: cell-based; conditions: Ovarian Cancer, 10 μM, 48 h
Method in brief: as §1

[16] = system: SF-268; experiment: NCI DTP human tumor cell line screen (SRB); type: cell-based; conditions: CNS Cancer, 10 μM, 48 h
Method in brief: as §1

[17] = system: SF-539; experiment: NCI DTP human tumor cell line screen (SRB); type: cell-based; conditions: CNS Cancer, 10 μM, 48 h
Method in brief: as §1

[18] = system: SK-MEL-28; experiment: NCI DTP human tumor cell line screen (SRB); type: cell-based; conditions: Melanoma, 10 μM, 48 h
Method in brief: as §1

[19] = system: SK-MEL-5; experiment: NCI DTP human tumor cell line screen (SRB); type: cell-based; conditions: Melanoma, 10 μM, 48 h
Method in brief: as §1

[20] = system: SNB-75; experiment: NCI DTP human tumor cell line screen (SRB); type: cell-based; conditions: CNS Cancer, 10 μM, 48 h
Method in brief: as §1

[21] = system: UACC-257; experiment: NCI DTP human tumor cell line screen (SRB); type: cell-based; conditions: Melanoma, 10 μM, 48 h
Method in brief: as §1

[22] = system: UO-31; experiment: NCI DTP human tumor cell line screen (SRB); type: cell-based; conditions: Renal Cancer, 10 μM, 48 h
Method in brief: as §1

[23] = system: HL-60(TB); type: cell-based, human; conditions: Leukemia, 10 μM, 48 h
Method: The human tumor cell lines of the cancer screening panel were grown in RPMI 1640 medium containing 5% fetal bovine serum and 2 mM L-glutamine. For experimental screens, cells were inoculated into 96 well microtiter plates in 100 μL at plating densities ranging from 5,000 to 40,000 cells/well depending on the doubling time of individual cell lines. After cell inoculation, the microtiter plates were incubated at 37° C., 5% carbon dioxide, 95% air and 100% relative humidity for 24 hours prior to addition of the compounds.

[24] = system: approximately 60 human tumor cell lines; experiment: NCI DTP human tumor cell line screen, whole panel statistics; type: cell-based; conditions: for mean growth percent: mean over all cell lines tested; for mean growth percent / delta value (growth percent) / range (growth percent): 10 μM, 48 h; for delta value (growth percent) / range (growth percent): over all cell lines tested
Method: Representative compounds of the invention, prepared as described in EXAMPLES 1-6, were submitted to the Developmental Therapeutics Program of the United States National Cancer Institute (NCl) to screen for anti-cancer activity. The anti-cancer activities of the six compounds were tested against approximately 60 human tumor cell lines representing leukemia, melanoma, and cancers of the lung, colon, breast, ovary, kidney, prostate, and brain. The following screening methodology was provided by the NCl. […] For experimental screens, cells were inoculated into 96 well microtiter plates in 100 μL at plating densities ranging from 5,000 to 40,000 cells/well depending on the doubling time of individual cell lines. After cell inoculation, the microtiter plates were incubated at 37° C., 5% carbon dioxide, 95% air and 100% relative humidity for 24 hours prior to addition of the compounds. After 24 hours of incubation, two plates of each cell line were fixed in situ with trichloroacetic acid (TCA) to represent a measurement of the cell population for each cell line at the time of compound addition (Tz). The compounds were solubilized in dimethyl sulfoxide at 400-fold the desired final maximum test concentration and stored frozen prior to use. At the time of drug addition, frozen aliquots of the compounds thawed and diluted with complete medium containing 50 μg/ml gentamicin. Aliquots of 100 μl of these different compound dilutions were added to the appropriate microtiter wells already containing 100 μl of medium, resulting in the required final compound concentration of 10 μM. Following compound addition, the plates were incubated for an additional 48 h at 37° C., 5% carbon dioxide, 95% air, and 100% relative humidity. For adherent cells, the assay was terminated by the addition of cold TCA. Cells were fixed in situ by the gentle addition of 50 μl of cold 50% (w/v) TCA (final concentration, 10% TCA) and incubated for 60 minutes at 4° C. The supernatant was discarded, and the plates were washed five times with tap water and air dried. Sulforhodamine B (SRB) solution (100 μl) at 0.4% (w/v) in 1% acetic acid was added to each well, and plates were incubated for 10 minutes at room temperature. After staining, unbound dye was removed by washing five times with 1% acetic acid and the plates were air dried. Bound stain was subsequently solubilized with 10 mM trizma base, and the absorbance was read on an automated plate reader at a wavelength of 515 nm. For suspension cells, the methodology was the same except that the assay was terminated by fixing settled cells at the bottom of the wells by gently adding 50 μl of 80% TCA (final concentration, 16% TCA). Using the three absorbance measurements [time zero, (Tz), control growth, (C), and test growth in the presence of compound (Ti)], the percentage growth was calculated at each of the compound concentrations levels. Percentage growth inhibition was calculated with the following algorithms: [(Ti−Tz)/(C−Tz)]×100 for concentrations for which Ti>/=Tz [(Ti−Tz)/Tz]×100 for concentrations for which Ti<Tz The results of the NCl in vitro anticancer screening with six compounds against various human tumor cell lines are presented below in Tables 2-7. […] The growth percent mean, delta, and range for each compound are given below.

Structure (SMILES) | Growth Percent [1] [%] | Growth Percent [2] [%] | Growth Percent [3] [%] | Growth Percent [4] [%] | Growth Percent [5] [%] | Growth Percent [6] [%] | Growth Percent [7] [%] | Growth Percent [8] [%] | Growth Percent [9] [%] | Growth Percent [10] [%] | Growth Percent [11] [%] | Growth Percent [12] [%] | Growth Percent [13] [%] | Growth Percent [14] [%] | Growth Percent [15] [%] | Growth Percent [16] [%] | Growth Percent [17] [%] | Growth Percent [18] [%] | Growth Percent [19] [%] | Growth Percent [20] [%] | other results
CC1CCC2C(C)C(OCc3ccc(C(=O)NN=Cc4ccccc4O)nc3)OC3OC4(C)CCC1C32OO4 (centres unmarked) [ART-Pyr-Sal, N′-(2-hydroxybenzylidene)-5-(dihydroxyartemisinin-methyl)-2-pyridine carbohydrazide] | 4.91 | 18.34 | 30.70 | 29.61 | 26.88 | 29.31 | 2.20 | −9.91 | 8.61 | 50.08 | 31.89 | 10.19 | 35.18 | 23.04 | 8.81 | 12.40 | −29.69 | 29.92 | −18.98 | −6.97 | Growth Percent [21]: 6.22%; Growth Percent [22]: 0.04%; Growth Percent [23]: 5.22%; inhibitory activities against cancer cells ([24]; DTP human tumor cell line screen, non-small cell lung, colon, breast, ovarian, leukemia, renal, melanoma, prostate, CNS cancer): inhibitory activities against several types of cancer cells; mean growth percent [24]: 12.83%; delta value (growth percent) [24]: 42.97; range (growth percent) [24]: 85.3
CC1CCC2C(C)C(OCc3ccc(C(=O)NN=Cc4ccccc4)cc3)OC3OC4(C)CCC1C32OO4 (centres unmarked) [ART-Phe-Bz, N′-(benzylidene)-4-(dihydroxyartemisinin-methyl)-phenyl carbohydrazide] | 22.05 | 5.59 | 2.94 | 18.46 | 7.86 | 10.19 | 8.89 | 34.29 | 32.27 | 26.78 | 53.20 | −9.33 | 11.56 | 18.29 | 26.65 | 35.30 | 25.70 | 45.74 | 2.01 | 0.39 | Growth Percent [21]: 25.96%; Growth Percent [22]: −21.11%; Growth Percent [23]: −49.40%; mean growth percent [24]: 17.28%; delta value (growth percent) [24]: 66.68; range (growth percent) [24]: 102.60
